For 27 compounds, T/C results are on record in PubChem BioAssay AID330 (DTP/NCI, 2004).

“And” between values parts separate entries of the source, which are not always exact repeats. Identical values can stand only once. Toxic doses and inconclusive results are not listed.

The subject of the assay is P388 leukemia ip, CD2F1 mice, survival T/C. Put plainly: NCI In Vivo Anticancer Drug Screen. Data for tumor model P388 Leukemia (intraperitoneal) in CD2F1 (CDF1) mice. The note with it: endpoint: median survival time, higher = longer survival. The method in brief: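 Mice carrying the transplanted tumor received test compound or vehicle. Survival was recorded in each group, and the value is the treated-group measurement divided by that of the vehicle-treated control group.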

Where [1] appears, read: dose: 50.0 mg/kg/injection, schedule: Q01DX009 (ip), vehicle: saline.
Where [2] appears, read: dose: 100.0 mg/kg/injection, schedule: Q01DX009 (ip), vehicle: saline.
Where [3] appears, read: dose: 50.0 mg/kg/injection, schedule: Q01DX005 (ip), vehicle: Klucel (hydroxypropylcellulose) (HPC).
Setting [4] is: dose: 100.0 mg/kg/injection, schedule: Q01DX005 (ip), vehicle: Klucel (hydroxypropylcellulose) (HPC).
The mark [5] stands for this setting: dose: 200.0 mg/kg/injection, schedule: Q01DX005 (ip), vehicle: Klucel (hydroxypropylcellulose) (HPC).
Where [6] appears, read: dose: 60.0 mg/kg/injection, schedule: Q01DX005 (ip), vehicle: saline with Tween-80.
[7] abbreviates: dose: 120.0 mg/kg/injection, schedule: Q01DX005 (ip), vehicle: saline with Tween-80.
Where [8] appears, read: dose: 240.0 mg/kg/injection, schedule: Q01DX005 (ip), vehicle: saline with Tween-80.
[9] abbreviates: dose: 200.0 mg/kg/injection, schedule: Q01DX009 (ip), vehicle: saline.
The mark [10] stands for this setting: dose: 15.0 mg/kg/injection, schedule: Q01DX005 (ip), vehicle: saline with Tween-80.
Setting [11] is: dose: 30.0 mg/kg/injection, schedule: Q01DX005 (ip), vehicle: saline with Tween-80.
The mark [12] stands for this setting: dose: 50.0 mg/kg/injection, schedule: Q01DX005 (ip), vehicle: saline with Tween-80.
[13] abbreviates: dose: 100.0 mg/kg/injection, schedule: Q01DX005 (ip), vehicle: saline with Tween-80.
The mark [14] stands for this setting: dose: 200.0 mg/kg/injection, schedule: Q01DX005 (ip), vehicle: saline with Tween-80.
[15] abbreviates: dose: 400.0 mg/kg/injection, schedule: Q04DX002 (ip), vehicle: saline.
[16] abbreviates: dose: 12.5 mg/kg/injection, schedule: Q01DX005 (ip), vehicle: Klucel (hydroxypropylcellulose) (HPC).
The mark [17] stands for this setting: dose: 25.0 mg/kg/injection, schedule: Q01DX005 (ip), vehicle: Klucel (hydroxypropylcellulose) (HPC).
Where [18] appears, read: dose: 60.0 mg/kg/injection, schedule: Q01DX005 (ip), vehicle: Klucel (hydroxypropylcellulose) (HPC).
Setting [19] is: dose: 240.0 mg/kg/injection, schedule: Q01DX005 (ip), vehicle: Klucel (hydroxypropylcellulose) (HPC).

Consider `NCC(=O)NCC(=O)NC(CCCN=C(N)N)C(=O)O` (configuration not stated), for which the T/C was 100 % of control (dose: 50.0 mg/kg/injection, schedule: Q01DX005 (ip), vehicle: saline); 103 % of control (dose: 100.0 mg/kg/injection, schedule: Q01DX005 (ip), vehicle: saline); 99 % of control (dose: 200.0 mg/kg/injection, schedule: Q01DX005 (ip), vehicle: saline).
For the compound `CCCN(CCC)CC(C)O` (configuration not stated), the T/C runs as follows: (dose: 25.0 mg/kg/injection, schedule: Q01DX009 (ip), vehicle: saline) 95 % of control; under setting [1], 100 % of control; under setting [2], 95 % of control.
Regarding `CCOP(=S)(N/N=C/c1ccc(Br)s1)OCC`, the T/C runs as follows: under setting [3], 101 % of control; under setting [4], 106 % of control; under setting [5], 104 % of control.
As for `COc1cccc2c1C(=O)c1c(O)c3c(c(O)c1C2=O)CC(O)(C(C)=O)CC3OC1OC(C)C(O)C(N)C1O` (configuration not stated), the T/C reads like this: (dose: 3.13 mg/kg/injection, schedule: Q04DX003 (ip), vehicle: water) 91 % of control; (dose: 6.25 mg/kg/injection, schedule: Q04DX003 (ip), vehicle: water) 110 % of control; (dose: 12.5 mg/kg/injection, schedule: Q04DX003 (ip), vehicle: water) 99 % of control; (dose: 25.0 mg/kg/injection, schedule: Q04DX003 (ip), vehicle: water) 100 % of control; (dose: 50.0 mg/kg/injection, schedule: Q04DX003 (ip), vehicle: water) 103 % of control.
With `O=C(CCC(=O)Nc1ccc(Cl)cc1Cl)CC(=O)c1ccco1`, the T/C is 102 % of control under setting [6], 105 % of control under setting [7] and 102 % of control under setting [8].
For the compound `Cc1cc(=O)n2c(nc3ccccc32)s1`, the T/C reads like this: (dose: 50.0 mg/kg/injection, schedule: Q01DX009 (ip), vehicle: Klucel (hydroxypropylcellulose) (HPC)) 109 % of control; (dose: 100.0 mg/kg/injection, schedule: Q01DX009 (ip), vehicle: Klucel (hydroxypropylcellulose) (HPC)) 96 % of control; (dose: 200.0 mg/kg/injection, schedule: Q01DX009 (ip), vehicle: Klucel (hydroxypropylcellulose) (HPC)) 109 % of control.
For `O=C(c1ccccc1)N(CCO)CCO`, the T/C was 108 % of control under setting [1], 94 % of control under setting [2] and 101 % of control under setting [9].
For `CCOc1c2c(nn(C)c1=O)Oc1ccccc1N2CCCN1CCOCC1`, the T/C was 96 % of control under setting [10]; 90 % of control under setting [11]; 104 % of control and 91 % of control under setting [6].
Consider `Cc1c2sc3ccccc3[nH]c2nc2[nH]c3ccccc3sc12`, for which the T/C is 108 % of control under setting [12], 116 % of control under setting [13] and 108 % of control under setting [14].
Turning to `CC(=O)NS(=O)(=O)c1ccc(N/N=C(\C#N)C(N)=O)cc1`, the T/C reads like this: under setting [3], 92 % of control; under setting [4], 100 % of control.
Turning to `O=C1C2CCN(CC2)C1(CO)CO`, the T/C was 102 % of control under setting [1], 105 % of control under setting [2] and 105 % of control under setting [9].
With `CC(=O)NC1CCCCC1[Se](=O)c1ccccc1` (configuration not stated), the T/C runs as follows: under setting [12], 108 % of control; under setting [13], 100 % of control; under setting [14], 109 % of control.
On to `NNc1nn2cnnc2c2ccccc12`, for which the T/C was 100 % of control and 96 % of control (dose: 6.25 mg/kg/injection, schedule: Q04DX002 (ip), vehicle: saline); 98 % of control and 99 % of control and 96 % of control (dose: 12.5 mg/kg/injection, schedule: Q04DX002 (ip), vehicle: saline); 100 % of control and 122 % of control and 97 % of control (dose: 25.0 mg/kg/injection, schedule: Q04DX002 (ip), vehicle: saline); 101 % of control and 104 % of control and 94 % of control (dose: 50.0 mg/kg/injection, schedule: Q04DX002 (ip), vehicle: saline); 88 % of control under setting [15].
On to `O=C1C=C(O)C(=O)C(CC2=C(O)C(=O)C=C(O)C2=O)=C1O`, for which the T/C under setting [16] was 101 % of control and 90 % of control; the T/C under setting [17] is 86 % of control and 90 % of control and 95 % of control.
For `C[N+]1(Cc2ccccc2)CCC(O)(C(=O)c2ccccc2)CC1` (configuration not stated), the T/C under setting [10] was 98 % of control; the T/C under setting [11] is 100 % of control; the T/C under setting [6] is 104 % of control and 86 % of control.
Take `COc1ccc2ccccc2c1/C=[N+](/[O-])c1ccccc1`: the T/C reads like this: under setting [18], 109 % of control; (dose: 120.0 mg/kg/injection, schedule: Q01DX005 (ip), vehicle: Klucel (hydroxypropylcellulose) (HPC)) 110 % of control; under setting [19], 112 % of control.
Take `CC(C)(C)c1cc(/C=C2/OC(=O)c3ccccc32)cc(C(C)(C)C)c1O`: the T/C is 99 % of control (dose: 100.0 mg/kg/injection, schedule: Q04DX002 (ip), vehicle: saline); 100 % of control (dose: 200.0 mg/kg/injection, schedule: Q04DX002 (ip), vehicle: saline); 96 % of control under setting [15].
In the case of `Cc1ccc(S(=O)(=O)CN(CN2C(=O)CCC2=O)c2ccc(Cl)cc2)cc1`, the T/C (dose: 15.0 mg/kg/injection, schedule: Q01DX005 (ip), vehicle: Klucel (hydroxypropylcellulose) (HPC)) is 101 % of control; the T/C (dose: 30.0 mg/kg/injection, schedule: Q01DX005 (ip), vehicle: Klucel (hydroxypropylcellulose) (HPC)) is 95 % of control; the T/C under setting [18] was 91 % of control and 93 % of control; the T/C under setting [19] was 90 % of control.
For the compound `COc1ccc(SCC(=O)c2ccc([N+](=O)[O-])o2)cc1`, the T/C by setting is: (dose: 50.0 mg/kg/injection, schedule: Q01DX009 (ip), vehicle: suspension in saline) 114 % of control; (dose: 100.0 mg/kg/injection, schedule: Q01DX009 (ip), vehicle: suspension in saline) 104 % of control.
Take `CC1CCC2(CC1)CC(=O)N(N)C2=O` (configuration not stated): the T/C under setting [6] is 104 % of control, the T/C under setting [7] is 105 % of control and the T/C under setting [8] was 108 % of control.
For the compound `O=C(Nc1ccc(Oc2ccc(Cl)cc2)c(Cl)c1)c1cc(I)cc(I)c1O`, the T/C by setting is: under setting [16], 96 % of control; under setting [17], 109 % of control; under setting [3], 101 % of control and 115 % of control.
`OCc1ccn2c1C(O)CC2` (configuration not stated): the T/C runs as follows: (dose: 12.5 mg/kg/injection, schedule: Q01DX009 (ip), vehicle: saline) 124 % of control; under setting [1], 113 % of control; under setting [2], 201 % of control; under setting [9], 157 % of control.
On to `CN(C)CCCC1(O)c2ccccc2Sc2cc(Cl)ccc21` (configuration not stated), for which the T/C by setting is: under setting [6], 100 % of control; under setting [7], 96 % of control.
Consider `CO[Si](CCCN)(OC)OC`, for which the T/C under setting [1] was 119 % of control, the T/C under setting [2] was 105 % of control and the T/C under setting [9] was 110 % of control.
`O=C1CC(c2ccccc2)=NN1c1ccccc1`: the T/C was 101 % of control under setting [3], 99 % of control under setting [4] and 95 % of control under setting [5].
For the compound `Cc1cc(Nc2nnc(-c3cccnc3Oc3ccccc3)s2)ccc1Br`, the T/C was 88 % of control (dose: 12.5 mg/kg/injection, schedule: Q01DX009 (ip), vehicle: saline with Tween-80); 92 % of control (dose: 25.0 mg/kg/injection, schedule: Q01DX009 (ip), vehicle: saline with Tween-80); 105 % of control and 91 % of control (dose: 50.0 mg/kg/injection, schedule: Q01DX009 (ip), vehicle: saline with Tween-80); 94 % of control (dose: 100.0 mg/kg/injection, schedule: Q01DX009 (ip), vehicle: saline with Tween-80); 103 % of control (dose: 200.0 mg/kg/injection, schedule: Q01DX009 (ip), vehicle: saline with Tween-80).
`CC(=C\C1=CC(C)(C)CCC1(C)C)/C=C(C)/C=C/C=[N+](\[O-])C1C(C2COC(C)(C)O2)OC2OC(C)(C)OC21` (configuration not stated): the T/C was 103 % of control (dose: 12.5 mg/kg/injection, schedule: Q01DX005 (ip), vehicle: DMSO); 119 % of control (dose: 25.0 mg/kg/injection, schedule: Q01DX005 (ip), vehicle: DMSO); 100 % of control and 113 % of control (dose: 50.0 mg/kg/injection, schedule: Q01DX005 (ip), vehicle: DMSO); 106 % of control (dose: 100.0 mg/kg/injection, schedule: Q01DX005 (ip), vehicle: DMSO); 103 % of control (dose: 200.0 mg/kg/injection, schedule: Q01DX005 (ip), vehicle: DMSO).
